Data set [1] relates to Heliothis virescens (tobacco budworm). In kind it is in vivo. The settings on record: 10 mL of 300 ppm, 0 equals no feeding. How it is done:
Seventy-eight cotton plants were grown in the greenhouse with natural lighting in Sassafras soil in six inch pots. When six true leaves were on the plant (approximately 36 cm tall) the soil was drenched with a solution of Compound 497, 500, 530, 531 or 543. Each of the 5 compounds was dissolved in 2 mL of acetone, and distilled water was added to make 300 ppm solutions of each of the compounds. The pots were divided into six groups (13 plants/treatment), and 10 mL of each solution was applied over the soil surface of each group with one group left untreated. The plants were arranged in the greenhouse in a randomized block design. Each treatment was divided into three groups for sampling at 24, 48, and 96 hours.
Leaves were taken from the base and terminal of the plants. The leaves from the third node and the terminal leaves greater than 15 cm^2 were sampled per plant. One clipped leaf from each plant was cut into four pieces and each piece was placed into an well with one second-instar larvae of Heliothis virescens (tobacco budworm). Larval mortality (% M) was recorded 96 hours after sampling. The percentage of leaf feeding (% FF) was also recorded. Consumption of the leaf in the well was reported as 0-100% (0 equals no feeding).

The test system of data set [2] is German cockroaches (Blatella germanica). Put plainly: Test Q: German cockroach bait test. In kind it is in vivo. The settings on record: ten cockroaches per cage. Here is the method:
For evaluating german cockroach (Blatella germanica), Compound 531 was mixed with water, and then blended into a slurry with equal amounts (by weight) of peanut butter. Approximately 1 gram of bait was placed into each test cage. Ten German cockroaches (Blatella germanica) were then placed into each cage, and provided water via a saturated cotton ball. The cages were held indoors, with indirect sunlight, and temperatures ranging from 22 to 31° C. Four test replicates were set up per rate. Evaluations were conducted 1, 2, 3, 5, and 7 days after treatment (DAT) by counting and removing the killed roaches found in each cage.

Data set [3] has as its system southern fire ants (Solenopsis xyloni). The data set is described as follows: Test R: fire ant bait test. In kind it is in vivo. The note with it: fifty ants per cage. The text has this: For evaluating control of fire ant (Solenopsis xyloni), Compound 531 was mixed with water and then mixed into a slurry with equal amounts (by weight) of Niban granular bait with no active ingredient (supplied by Nisus Corp.). The baits were uniformly sprinkled onto the sand substrate in each test cage. Fifty field-collected southern fire ants (Solenopsis xyloni) were then placed into each cage and provided water via a saturated cotton ball. The cages were held indoors with indirect sunlight and temperatures ranging from 22 to 31° C. Four test replicates were set up per rate. Evaluations were conducted at 1, 3, 7, 10, and 14 days after treatment (DAT) by counting and removing the killed ants found in each cage.

The subject of data set [4] is tobacco budworm (Heliothis virescens). Put plainly: Test I: soil systemic control of tobacco budworm, cotton. The data set is classed as in vivo. The settings on record: 10 ppm, 10 mL to pots weekly for four weeks. How it is done: For evaluating soil systemic control of tobacco budworm (Heliothis virescens), cotton plants were grown in sassafras soil in 15-cm pots in aluminum trays. When the plants reached square stage (bud formation on the plant) the plants were treated with the test compounds.
Test compounds were formulated in 0.25 mL of acetone and then diluted with water to provide solutions of 10 ppm. Ten mL of the treatment solutions was added to the pots weekly for four weeks, with four replicates of each treatment rate. One day after the second, third and fourth treatments, 35-50 first instar Heliothis virescens larvae were brushed on each plant with paintbrushes and placed on the terminal area, squares, and bolls. Five days after the last infestation with larvae the plants were rated for damage.

Data set [5] has as its system thrips (Frankliniella sp.). Put plainly: Test N: control of thrips, sprayed cotton or soybean plants. The settings on record: sprayed at 10 ppm; four days after application. In kind it is in vivo. How it is done: For evaluating control of thrips (Frankliniella sp.), samples of the test compounds were dissolved in 1 mL of acetone. This solution was then diluted to 100 mL total volume using an aqueous 500 ppm solution of Ortho X-77™ surfactant. Serial dilutions were made to obtain 50 mL of 10 ppm concentration.
The diluted solutions of the test compounds were sprayed to run-off on three-week-old cotton or soybean plants infested with thrips. The plants were placed on a rotating turntable sprayer (10 rpm). Test solutions were applied using a flat fan air-assisted nozzle (Spraying Systems 122440) at 10 psi (69 kPa). Sprayed and dried plants were incased in a plastic cylinder. At four days after application the total number of dead thrips was recorded.

Data set [6] concerns Colorado potato beetle (Leptinotarsa decemlineata). Put plainly: Test L: soil systemic control of Colorado potato beetle, tomato. The data set is classed as in vivo. The note with it: 5 ppm, 5 mL to soil; leaf excised after 4 days; mortality after four days. Here is the method:
For evaluating soil systemic control of Colorado potato beetle (Leptinotarsa decemlineata), transplanted tomato plants were grown in 6-cm pots for 5 days until they were at the two true leaf stage.
Test compounds were dissolved in 0.25 mL of acetone and diluted with water provide solutions of 5 ppm. Five mL of the appropriate test solution was applied by pipette to the surface of the soil in each pot, followed by 5 mL of water, with eight plants for each compound/rate. The pots were covered and held at 25° C. with 16 hours of light per day. The plants were watered the next day and each day following as needed. After 4 days, one leaf from each plant was excised and placed into a well of a test tray as described in Test H. One 5-day old Colorado potato beetle (Leptinotarsa decemlineata) was placed in each well, the tray was covered and then the test units were held at 25° C. with 16 hours of light per day. Mortality was observed after four days.

[7] abbreviates: base leaf sampled 24 h after drench.
The mark [8] stands for this setting: base leaf sampled 48 h after drench.
Setting [9] is: base leaf sampled 96 h after drench.
Setting [10] is: terminal leaf sampled 24 h after drench.
Where [11] appears, read: terminal leaf sampled 48 h after drench.
[12] abbreviates: terminal leaf sampled 96 h after drench.

Read-outs that look alike come from different tables or passages of the source.

Broadly, the melting point is the temperature, or range, at which the solid turns liquid. Molecule `CNC(=O)c1cc(Cl)cc(C)c1NC(=O)c1cc(Cl)nn1-c1ncccc1Cl` gave a melting point of 205 to 207 °C.

`Cc1cccc(C(=O)NC(C)C)c1NC(=O)c1cc(C(F)(F)F)nn1-c1ncccc1C(F)(F)F` came in with a melting point of 233 to 235 °C.

As to `Cc1cc(Cl)cc(C(=O)NC(C)C)c1NC(=O)c1cc(Cl)nn1-c1ncccc1Cl` [Compound 543], the “% FF (percentage of leaf feeding)” value was 30% in data set [1] (setting [7]); 30% in data set [1] (setting [8]); 5% in data set [1] (setting [9]); 20% in data set [1] (setting [10]); 20% in data set [1] (setting [11]); 5% in data set [1] (setting [12]).

Regarding `Cc1cc(Cl)cc(C(=O)NC(C)C)c1NC(=O)c1cc(C(F)(F)F)nn1-c1ncccc1Cl` [Compound 497], the “% FF (percentage of leaf feeding)” value in data set [1] (setting [7]) was 80%; in data set [1] (setting [8]), 100%; in data set [1] (setting [9]) it was 20%; in data set [1] (setting [10]), 50%; in data set [1] (setting [11]) it was 50%; in data set [1] (setting [12]) it was 10%.

`CCn1nc(C(F)(F)F)cc1NC(=O)c1c(C)cccc1C(=O)NC(C)C` yielded a melting point of 200 to 204 °C.

With `CNC(=O)c1cc(Cl)cc(C)c1NC(=O)c1cc(Br)nn1-c1ncccc1Cl` [Compound 531], the “Average of Killed Cockroaches” value was 3.8 in data set [2] (peanut butter bait 400 ppm, 1 DAT); 5.8 in data set [2] (peanut butter bait 400 ppm, 2 DAT); 6.3 in data set [2] (peanut butter bait 400 ppm, 3 DAT); 7 in data set [2] (peanut butter bait 400 ppm, 5 DAT); 7 in data set [2] (peanut butter bait 400 ppm, 7 DAT); 6.3 in data set [2] (peanut butter bait 2000 ppm, 1 DAT). The “Average of Killed Cockroaches” value is given as 8 in data set [2] (peanut butter bait 2000 ppm, 2 DAT); 8.8 in data set [2] (peanut butter bait 2000 ppm, 3 DAT); 9 in data set [2] (peanut butter bait 2000 ppm, 5 DAT); 9 in data set [2] (peanut butter bait 2000 ppm, 7 DAT); 9.5 in data set [2] (peanut butter bait 10000 ppm, 1 DAT); 9.5 in data set [2] (peanut butter bait 10000 ppm, 2 DAT). In addition, the “Average of Killed Cockroaches” value in data set [2] (peanut butter bait 10000 ppm, 3 DAT) is on record as 9.5; in data set [2] (peanut butter bait 10000 ppm, 5 DAT), 9.5; in data set [2] (peanut butter bait 10000 ppm, 7 DAT) it was 9.5. Further, the “% FF (percentage of leaf feeding)” value was found to be 60% in data set [1] (setting [7]); 80% in data set [1] (setting [8]); 10% in data set [1] (setting [9]); 40% in data set [1] (setting [10]); 40% in data set [1] (setting [11]); 10% in data set [1] (setting [12]). In addition, the “Average of Killed Fire Ants” value in data set [3] (granular bait 400 ppm, 1 DAT) was 0.5; in data set [3] (granular bait 400 ppm, 3 DAT), 1.3; in data set [3] (granular bait 400 ppm, 7 DAT) it was 40.5; in data set [3] (granular bait 400 ppm, 10 DAT), 50; in data set [3] (granular bait 400 ppm, 14 DAT), 50; in data set [3] (granular bait 2,000 ppm, 1 DAT), 1. The “Average of Killed Fire Ants” value worked out at 2 in data set [3] (granular bait 2,000 ppm, 3 DAT); 43 in data set [3] (granular bait 2,000 ppm, 7 DAT); 49.8 in data set [3] (granular bait 2,000 ppm, 10 DAT); 50 in data set [3] (granular bait 2,000 ppm, 14 DAT); 0 in data set [3] (granular bait 10,000 ppm, 1 DAT); 2.3 in data set [3] (granular bait 10,000 ppm, 3 DAT). The “Average of Killed Fire Ants” value is reported as 42.8 in data set [3] (granular bait 10,000 ppm, 7 DAT); 50 in data set [3] (granular bait 10,000 ppm, 10 DAT); 50 in data set [3] (granular bait 10,000 ppm, 14 DAT).

With `Cc1cc(Cl)cc(C(=O)NC(C)C)c1NC(=O)c1cc(Br)nn1-c1ncccc1Cl` [Compound 530], the “% FF (percentage of leaf feeding)” value is given as 80% in data set [1] (setting [7]); 50% in data set [1] (setting [8]); 5% in data set [1] (setting [9]); 50% in data set [1] (setting [10]); 20% in data set [1] (setting [11]); 5% in data set [1] (setting [12]).

Consider `Cc1cc(Br)cc(C(=O)NC(C)C)c1NC(=O)c1cc(Br)nn1-c1ncccc1Cl` [Compound 520], for which the “protection of squares and bolls” value in data set [4] was “excellent protection of squares and boils including no or minimal sepal damage”.

For the molecule `CNC(=O)c1cc(Br)cc(C)c1NC(=O)c1cc(C(F)(F)F)nn1-c1ncccc1Cl` [Compound 542], the mortality entry in data set [5] was “at least 90%”.

As to `CNC(=O)c1cc(Cl)cc(C)c1NC(=O)c1cc(OCC(F)(F)F)nn1-c1ncccc1Cl`, the melting point lay within 215 to 217 °C.

In the case of `CNC(=O)c1cc(Cl)cc(C)c1NC(=O)c1cc(C(F)(F)F)nn1-c1ncccc1Cl` [Compound 500], the “% FF (percentage of leaf feeding)” value in data set [1] (setting [7]) is on record as 80%; in data set [1] (setting [8]), 80%; in data set [1] (setting [9]), 30%; in data set [1] (setting [10]), 60%; in data set [1] (setting [11]), 60%; in data set [1] (setting [12]), 30%.

On to `Cc1cccc(C(=O)NC(C)C)c1NC(=O)c1cc(C(F)(F)F)nn1-c1ncccc1Cl` [Compound 214], for which the “mortality and feeding inhibition” value in data set [6] was “excellent levels of mortality and feeding inhibition”. Moreover, the “protection of squares and bolls” value in data set [4] is “excellent protection of squares and boils including no or minimal sepal damage”.

Consider `Cc1cccc(C(=O)NC(C)C)c1NC(=O)c1cc(Br)nn1-c1ncccc1Cl` [Compound 283], for which the “protection of squares and bolls” value in data set [4] was “excellent protection of squares and boils including no or minimal sepal damage”.

(Values after US7696233B2, “Method for controlling particular insect pests by applying anthranilamide compounds” (E. I. du Pont de Nemours and Company, priority 2001, dated 2010).)
